Values of other authors, collected in patent publication US10610591B2, “Light responsive quantum dot drug delivery system” (Nanoco Technologies Ltd., priority 2017, dated 2020).

What was measured:
[1] = not given; remark: listed apart in the source
[2] = pH 7.4

In the case of 7-Ethyl-10-hydroxycamptothecin, the “solubility in DMSO” value (DMSO) is given as 2000 µg/mL and the “solubility in water” value (water) is given as “essentially insoluble in water”.
In the case of `CC(C)(C#N)c1cc(Cn2cncn2)cc(C(C)(C)C#N)c1` [anastrozole, alpha,alpha,alpha′,alpha′-tetramethyl-5-(1H,1,2,4-triazol-1-ylmethyl)-m-benzenediacetonitrile], the “log P (log Po/w, log Poct/wat, log Pexp)” value ([1]; octanol/water) is listed as 2.4.
In the case of `CC1=C(CC(=O)O)c2cc(F)ccc2/C1=C\c1ccc([S+](C)[O-])cc1` (centres unmarked) [sulindac], the “log P^N (neutral)” value ([1]; neutral) is listed as 3.60 and the “log D7.4” value [2] is listed as 0.12.
